From patent US11034671B2, “Apoptosis signal-regulating kinase inhibitors and uses thereof” (SICHUAN HAISCO PHARMACEUTICAL CO., LTD., priority 2017, dated 2021)

What was measured:
ASK1 = ASK1 (Homo sapiens (Human), UniProt Q99683); assay: ASK1 KINOMEscan assay (biochemical Kd), competition binding; conditions: DNA-tagged ASK1 kinase, 11-point 3-fold dilution
Description: The binding of compounds to ASK1 were determined using DiscoverX's proprietary technology. […] The assay is performed by combining three components: DNA-tagged ASK1 kinase; immobilized ligand; and a test compound. The ability of the test compound to compete with the immobilized ligand is measured via quantitative PCR of the DNA tag. […] The liganded beads were blocked with excess biotin and washed with blocking buffer (SeaBlock (Pierce), 1% BSA, 0.05% Tween 20, 1 mM DTT) to remove unbound ligand and to reduce nonspecific binding. […] Kds were determined using an 11-point 3-fold compound dilution series with three DMSO control points. […] The compounds were then diluted directly into the assays such that the final concentration of DMSO was 0.9%. All reactions were performed in polypropylene 384-well plate. […] The kinase concentration in the eluates was measured by qPCR. Most Kds were determined using a compound top concentration=30,000 nM. […] Binding constants (Kds) were calculated with a standard dose-response curve using the Hill equation: Response=Background+{(Signal−Background)/[1+(Kd^Hill Slope/Dose^Hill Slope)]}, the Hill Slope was set to −1, and curves were fitted using a non-linear least square fit with the Levenberg-Marquardt algorithm.

[1] = test system: phospho-p38 (downstream target of ASK1 activation) in HK-2 cells; assay: HK-2 phospho-p38 HTRF assay (cellular IC50); format: cell-based; conditions: Homo sapiens, compound 2 h then 1 mM H2O2 30 min, phospho-T180/Y182 p38 HTRF, read-out: p38 MAPK IC50
Description: Monolayers of HK-2 cells were grown on 384-well plates at 8000 cells/well and incubated at 37° C. with 5% CO2/95% air in keratinocyte serum-free medium (Thermofisher, Carlsbad, Calif.) supplemented with recombinant human EGF (5 ng/mL) and bovine pituitary extract (50 μg/mL). 24 hours after seeding, cells were treated with test compounds for various concentrations for 2 hours and followed by 30 min treatment of H2O2 with final concentration of 1 mM. At the end of cell treatment, the cell medium was removed, and the cells were washed once with ice-cold PBS and subjected to measure the level of phosphor-p38 (downstream target of ASK1 activation) using Cisbio's P38 phospho-T180/Y182 HTRF kit from Cisbio (Cat. 64P38PEG). […] The compounds were then diluted directly into the assays such that the final concentration of DMSO was 0.4%. […] IC50 were calculated with a log (dose)-response curve using four parameter variable nonlinear fitting, with log(dose) in X-axis and (Em665/Em620×10000) ratio as Y-axis.

ASK1, sequence (Q99683 whole entry): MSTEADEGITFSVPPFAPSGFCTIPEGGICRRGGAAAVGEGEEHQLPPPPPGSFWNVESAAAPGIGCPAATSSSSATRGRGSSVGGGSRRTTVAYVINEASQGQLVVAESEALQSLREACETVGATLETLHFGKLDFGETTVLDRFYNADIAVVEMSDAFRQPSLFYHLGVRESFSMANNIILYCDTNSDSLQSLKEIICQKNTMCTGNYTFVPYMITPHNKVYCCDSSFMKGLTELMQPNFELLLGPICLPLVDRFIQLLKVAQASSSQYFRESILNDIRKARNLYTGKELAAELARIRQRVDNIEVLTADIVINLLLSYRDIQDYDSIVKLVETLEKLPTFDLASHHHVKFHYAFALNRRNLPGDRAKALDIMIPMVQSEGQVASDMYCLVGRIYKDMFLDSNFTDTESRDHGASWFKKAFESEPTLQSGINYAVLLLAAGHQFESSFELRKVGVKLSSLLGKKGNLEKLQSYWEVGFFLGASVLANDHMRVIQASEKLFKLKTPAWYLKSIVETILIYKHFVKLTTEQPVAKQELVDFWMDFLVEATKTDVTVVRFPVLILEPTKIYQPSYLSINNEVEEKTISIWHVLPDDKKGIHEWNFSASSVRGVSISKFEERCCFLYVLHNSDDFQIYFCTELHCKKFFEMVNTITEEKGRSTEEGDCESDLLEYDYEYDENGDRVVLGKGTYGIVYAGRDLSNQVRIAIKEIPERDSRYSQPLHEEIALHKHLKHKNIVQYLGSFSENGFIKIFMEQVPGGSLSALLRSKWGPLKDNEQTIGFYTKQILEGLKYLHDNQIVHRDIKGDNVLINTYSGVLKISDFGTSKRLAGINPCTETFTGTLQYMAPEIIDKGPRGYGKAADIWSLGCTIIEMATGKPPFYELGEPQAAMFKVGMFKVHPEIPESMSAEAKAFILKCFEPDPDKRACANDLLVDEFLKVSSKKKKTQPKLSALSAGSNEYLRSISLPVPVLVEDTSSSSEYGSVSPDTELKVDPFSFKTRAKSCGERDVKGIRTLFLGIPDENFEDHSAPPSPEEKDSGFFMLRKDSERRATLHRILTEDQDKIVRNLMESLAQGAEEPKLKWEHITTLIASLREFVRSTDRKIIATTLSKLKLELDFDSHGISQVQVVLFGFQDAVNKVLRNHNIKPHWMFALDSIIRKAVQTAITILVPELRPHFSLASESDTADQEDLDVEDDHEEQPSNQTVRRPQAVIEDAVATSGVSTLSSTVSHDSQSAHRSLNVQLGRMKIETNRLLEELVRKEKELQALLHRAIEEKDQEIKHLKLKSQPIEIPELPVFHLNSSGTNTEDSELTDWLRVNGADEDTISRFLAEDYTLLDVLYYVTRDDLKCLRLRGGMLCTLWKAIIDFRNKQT

| Kd (ASK1) [nM] | IC50 [1] [nM] | Compound |
| --- | --- | --- |
| < 10 | < 100 | CCc1ccc(-c2ccc3c(c2)C(=O)Nc2cccc(n2)-c2nncn2CCCCO3)cn1 [Example 47] |
| < 10 | < 100 | O=C1Nc2cccc(n2)-c2nncn2CCCCOc2ccc(-c3ccc(F)nc3)cc21 [Example 39] |
| < 10 | < 100 | Cc1ccc(-c2ccc3c(c2)C(=O)Nc2cccc(n2)-c2nncn2CCCCO3)cn1 [Example 24] |
| 10 to 100 | 100 to 1000 | O=C1Nc2cccc(n2)-c2nncn2CCCCCOc2ccc(-c3ccc(C4CC4)nc3)cc21 [Example 19] |
| < 10 | 100 to 1000 | O=C1Nc2cccc(n2)-c2nncn2CCCCOc2ccc(-c3ccc(C4CC4)nc3)cc21 [Example 23] |
| < 10 | < 100 | O=C1Nc2cccc(n2)-c2nncn2CCCCOc2ccc(-c3ccc(C(F)F)nc3)cc21 [Example 52] |
| < 10 | < 100 | O=C1Nc2cccc(n2)-c2nncn2CCCOc2ccc(-c3ccc(C4CC4)nc3)cc21 [Example 37] |
| < 10 | < 100 | O=C1Nc2cccc(n2)-c2nncn2CCCCOc2ccc(-c3ccc(Cl)nc3)cc21 [Example 54] |
| < 10 | < 100 | O=C1Nc2cccc(n2)-c2nncn2CCCCOc2ccc(-c3ccc(C(F)(F)F)nc3)cc21 [Example 40] |
| < 10 | 100 to 1000 | N#Cc1ccc(-c2ccc3c(c2)C(=O)Nc2cccc(n2)-c2nncn2CCCCO3)cn1 [Example 63] |

Second part, the compound before the results:

| Compound | Kd (ASK1) [nM] | IC50 [1] [nM] |
| --- | --- | --- |
| Cc1ccc(-c2ccc3c(c2)C(=O)Nc2cccc(n2)-c2nncn2C2CC(CO3)C2)cn1 [Example 69] |  | < 100 |
| O=C1Nc2cccc(n2)-c2nncn2CCCCOc2ccc(N3CCOCC3)cc21 [Example 43] |  | < 100 |
| O=C1Nc2cccc(n2)-c2nncn2CCCCOc2ccc(C3CC3)cc21 [Example 46] | < 10 | 100 to 1000 |
| O=C1Nc2cccc(n2)-c2nncn2CCCCOc2ccc(-c3ccsc3)cc21 [Example 42] | < 10 | 100 to 1000 |
| CC1(C)Cc2cc3c(cc2O1)C(=O)Nc1cccc(n1)-c1nncn1CCCCO3 [Example 30] | < 10 | < 100 |
| O=C1Nc2cccc(n2)-c2nncn2CCCOc2ccc(-n3cnc(C4CC4)c3)cc21 [Example 66] | < 10 | 100 to 1000 |
| Cn1cc(-c2ccc3c(c2)C(=O)Nc2cccc(n2)-c2nncn2CCCCO3)cn1 [Example 48] |  | < 100 |
| Cc1ccc(-c2ccc3c(c2)C(=O)Nc2cccc(n2)-c2nncn2C(C)CCO3)cn1 (stereo not shown) [Example 67] | < 10 | < 100 |
| O=C1Nc2cccc(n2)-c2nncn2CCCCOc2ccc(-n3cnc(C4CC4)c3)cc21 [Example 22] | < 10 | < 100 |
| Cc1cc2c(cc1-n1cnc(C3CC3)c1)C(=O)Nc1cccc(n1)-c1nncn1CCCCO2 [Example 61] | < 10 | < 100 |
| Cc1ccc(-c2ccc3c(c2)C(=O)Nc2cccc(n2)-c2nncn2CCCOC3)cn1 [Example 70] | < 10 | < 100 |
| CC1CCCOc2ccc(-c3ccc(C4CC4)nc3)cc2C(=O)Nc2cccc(n2)-c2nncn21 (stereo not shown) [Example 50] | < 10 | < 100 |
| Cc1ccc(-c2ccc3c(c2)C(=O)Nc2cccc(n2)-c2nncn2C(C)CCCO3)cn1 (stereo not shown) [Example 56] | < 10 | < 100 |
| Cc1ccc(-c2ccc3c(c2)C(=O)Nc2cccc(n2)-c2nncn2C2CCC(CC2)O3)cn1 [Example 71] |  | < 100 |
| O=C1Nc2cccc(n2)-c2nncn2CCCCOc2ccc(-c3ccccc3)cc21 [Example 38] | < 10 | < 100 |
